Measured values from EP1561465A2, “Methods of use of fluoroquinolone compounds against bacteria” (LG Life Sciences, Ltd., priority 1999, dated 2001).
Converted amounts (≈) assume the structure as drawn. Like-named read-outs stand apart in the source and are kept apart here.

Tests used:
Assay type in all cases: cell-based
Escherichia coli = experiment: MIC by NCCLS broth microdilution, 1100 Japanese clinical isolates 1997-1998; details: for MIC50 / MIC90: Escherichia coli
Klebsiella oxytoca = experiment: as above; details: Klebsiella oxytoca (n=40)
Streptococcus pneumoniae [1] = experiment: MIC by NCCLS reference broth microdilution, 450 respiratory tract pathogens; details: Streptococcus pneumoniae
Klebsiella pneumoniae = experiment: as above; details: for MIC50 / MIC90: Klebsiella pneumoniae
Salmonella spp. = experiment: MIC by agar dilution (NCCLS M7-A4), 288 enteropathogenic isolates, eight quinolones; details: for MIC: ciprofloxacin MIC ≥[…], read-out: MIC
Haemophilus influenzae [2] = experiment: MIC by broth microdilution (NCCLS), dried MicroScan panels, clinical isolates 1998-1999; details: for MIC90: Haemophilus influenzae
Proteus mirabilis = experiment: MIC by NCCLS broth microdilution, 1100 Japanese clinical isolates 1997-1998
Haemophilus influenzae [3] = experiment: MIC by agar dilution (NCCLS), 411 isolates Buenos Aires 1998-99; details: Haemophilus influenzae (n = 65)
Shigella spp. = experiment: MIC by NCCLS broth microdilution, 1100 Japanese clinical isolates 1997-1998; details: Shigella spp. (n=34)
E. coli = experiment: microbe, parasite or virus in culture; details: Escherichia coli
P. aeruginosa = experiment: MIC by two-fold serial agar dilution, quinolone-resistant strains; details: Pseudomonas aeruginosa
Streptococcus pneumoniae [4] = experiment: MIC by two-fold serial agar dilution, Sensitivity Disk agar-N (Kitasato isolates); details: Streptococcus pneumoniae; for MIC90: read-out: MIC90; for MIC: read-out: MIC Range; for MIC50: read-out: MIC50
Streptococcus pyogenes = experiment: MIC by NCCLS broth microdilution, 1100 Japanese clinical isolates 1997-1998; details: Streptococcus pyogenes (n=51)
Haemophilus influenzae [5] = experiment: MIC by NCCLS reference broth microdilution, 450 respiratory tract pathogens; details: Haemophilus influenzae; for MIC90: read-out: MIC90
Hafnia alvei = experiment: MIC by agar dilution (NCCLS M7-A4), 288 enteropathogenic isolates, eight quinolones; details: Hafnia alvei (n = 32)
[6] = Escherichia coli ciprofloxacin resistant (n=5)
[7] = Escherichia coli ciprofloxacin susceptible (n=37)
[8] = Streptococcus pneumoniae (n = 100)
[9] = erythromycin resistant M phenotype (n = 16)
[10] = erythromycin resistant MLSB phenotype (n = 16)
[11] = penicillin intermediate (n = 16)
[12] = penicillin susceptible (n = 20)
[13] = extended spectrum β-lactamase negative (n = 30)
[14] = extended spectrum β-lactamase positive (n = 20)
[15] = Haemophilus influenzae (300 isolates)
[16] = Haemophilus influenzae (n = 100)

C[C@H]1COc2c(N3CCN(C)CC3)c(F)cc3c(=O)c(C(=O)O)cn1c23 [Levofloxacin, levofloxacin]
MIC Range (Escherichia coli; [6]): 4 to 128 µg/mL | MIC Range (Escherichia coli; [7]): ≤0.008 to 0.25 µg/mL | MIC50 (Escherichia coli; [6]): 16 µg/mL (≈ 44.3 µM) | MIC90 (Escherichia coli; Escherichia coli ciprofloxacin resistant (n=5), values marked *: MIC80 value): 16 µg/mL (≈ 44.3 µM) | MIC50 (Escherichia coli; [7]): 0.032 µg/mL (≈ 0.0886 µM) | MIC90 (Escherichia coli; [7]): 0.063 µg/mL (≈ 0.174 µM) | MIC50 (Klebsiella oxytoca): 0.063 µg/mL (≈ 0.174 µM) | MIC90 (Klebsiella oxytoca): 4 µg/mL (≈ 11.1 µM) | MIC Range (Klebsiella oxytoca): 0.016 to 16 µg/mL | MIC (Streptococcus pneumoniae [1]; [8]): 0.25 to 2 µg/mL (≈ 0.692 to 5.53 µM) | MIC50 (Streptococcus pneumoniae [1]; [8]): 1 µg/mL (≈ 2.77 µM) | MIC90 (Streptococcus pneumoniae [1]; [8]): 1 µg/mL (≈ 2.77 µM) | MIC (Streptococcus pneumoniae [1]; [9]): 1 to 2 µg/mL (≈ 2.77 to 5.53 µM) | MIC50 (Streptococcus pneumoniae [1]; [9]): 1 µg/mL (≈ 2.77 µM) | MIC90 (Streptococcus pneumoniae [1]; [9]): 1 µg/mL (≈ 2.77 µM) | MIC (Streptococcus pneumoniae [1]; [10]): 0.5 to 2 µg/mL (≈ 1.38 to 5.53 µM) | MIC50 (Streptococcus pneumoniae [1]; [10]): 1 µg/mL (≈ 2.77 µM) | MIC90 (Streptococcus pneumoniae [1]; [10]): 1 µg/mL (≈ 2.77 µM) | MIC (Streptococcus pneumoniae [1]; multi-drug resistant (n = 16)): 0.5 to 1 µg/mL (≈ 1.38 to 2.77 µM) | MIC50 (Streptococcus pneumoniae [1]; multi-drug resistant (n = 16)): 1 µg/mL (≈ 2.77 µM) | MIC90 (Streptococcus pneumoniae [1]; multi-drug resistant (n = 16)): 1 µg/mL (≈ 2.77 µM) | MIC (Streptococcus pneumoniae [1]; [11]): 0.5 to 1 µg/mL (≈ 1.38 to 2.77 µM) | MIC50 (Streptococcus pneumoniae [1]; [11]): 1 µg/mL (≈ 2.77 µM) | MIC90 (Streptococcus pneumoniae [1]; [11]): 1 µg/mL (≈ 2.77 µM) | MIC (Streptococcus pneumoniae [1]; penicillin resistant (n = 18)): 0.5 to 2 µg/mL (≈ 1.38 to 5.53 µM) | MIC50 (Streptococcus pneumoniae [1]; penicillin resistant (n = 18)): 0.5 µg/mL (≈ 1.38 µM) | MIC90 (Streptococcus pneumoniae [1]; penicillin resistant (n = 18)): 1 µg/mL (≈ 2.77 µM) | MIC (Streptococcus pneumoniae [1]; [12]): 0.25 to 1 µg/mL (≈ 0.692 to 2.77 µM) | MIC50 (Streptococcus pneumoniae [1]; [12]): 1 µg/mL (≈ 2.77 µM) | MIC90 (Streptococcus pneumoniae [1]; [12]): 1 µg/mL (≈ 2.77 µM) | MIC Range (Klebsiella pneumoniae; Klebsiella pneumoniae (n = 50)): 0.15 to 1 µg/mL | MIC50 (Klebsiella pneumoniae; Klebsiella pneumoniae (n = 50)): 0.06 µg/mL (≈ 0.166 µM) | MIC90 (Klebsiella pneumoniae; Klebsiella pneumoniae (n = 50)): 0.5 µg/mL (≈ 1.38 µM) | MIC50 (Klebsiella pneumoniae; [13]): 0.06 µg/mL (≈ 0.166 µM) | MIC90 (Klebsiella pneumoniae; [13]): 0.12 µg/mL (≈ 0.332 µM) | MIC50 (Klebsiella pneumoniae; [14]): 0.5 µg/mL (≈ 1.38 µM) | MIC90 (Klebsiella pneumoniae; [14]): 0.5 µg/mL (≈ 1.38 µM) | MIC Range (Klebsiella pneumoniae; [13]): 0.015 to 0.5 µg/mL | MIC Range (Klebsiella pneumoniae; [14]): 0.06 to 1 µg/mL | MIC (Salmonella spp.; S. hadar (n = 2)): 1 µg/mL (≈ 2.77 µM) | MIC (Salmonella spp.; S. newport (n = 1)): 1 µg/mL (≈ 2.77 µM) | MIC (Salmonella spp.; S. virchow (n = 2)): 0.25 µg/mL (≈ 0.692 µM) | % Susceptible (Salmonella spp.; Salmonella spp. (n = 106)): 100% | MIC50 (Salmonella spp.; Salmonella spp. (n = 106)): 0.06 µg/mL (≈ 0.166 µM) | MIC90 (Salmonella spp.; Salmonella spp. (n = 106)): 0.25 µg/mL (≈ 0.692 µM) | MIC Range (Salmonella spp.; Salmonella spp. (n = 106)): 0.06 to 1 µg/mL | MIC (Salmonella spp.; Salmonella, S. tshiongwe (n = 1)): 1 µg/mL (≈ 2.77 µM) | MIC50 (Haemophilus influenzae [2]; [15]): ≤ 0.015 µg/mL | MIC Range (Haemophilus influenzae [2]; [15]): ≤0.015 to 0.5 µg/mL | MIC90 (Haemophilus influenzae [2]; [15]): 0.03 µg/mL (≈ 0.083 µM) | MIC90 (Haemophilus influenzae [2]; β-lactamase negative (234)): 0.03 µg/mL (≈ 0.083 µM) | MIC90 (Haemophilus influenzae [2]; β-lactamase positive (66)): 0.03 µg/mL (≈ 0.083 µM) | MIC90 (Proteus mirabilis; Proteus mirabilis): 0.125 µg/mL (≈ 0.346 µM) | MIC Range (Proteus mirabilis; Proteus mirabilis (n=30)): 0.032 to 2 µg/mL | MIC50 (Proteus mirabilis; Proteus mirabilis (n=30), read-out: MIC50): 0.063 µg/mL (≈ 0.174 µM) | MIC90 (Haemophilus influenzae [3]): 0.016 µg/mL (≈ 0.0443 µM) | MIC Range (Haemophilus influenzae [3]): ≤0.004 to 0.25 µg/mL | MIC50 (Shigella spp.): 0.016 µg/mL (≈ 0.0443 µM) | MIC90 (Shigella spp.): 0.063 µg/mL (≈ 0.174 µM) | MIC Range (Shigella spp.): 0.016 to 0.063 µg/mL | MIC50 (E. coli; E. coli (13 strains), quinolone-resistant, read-out: MIC50): 0.125 µg/mL (≈ 0.346 µM) | MIC90 (E. coli; E. coli (13 strains), quinolone-resistant, read-out: MIC90): 1 µg/mL (≈ 2.77 µM) | MIC (E. coli; E. coli KU1029, mutant type SP (spontaneous mutant in the DNA gyrase)): 0.063 µg/mL (≈ 0.174 µM) | MIC (E. coli; E. coli KU1030, mutant type SP): 0.125 µg/mL (≈ 0.346 µM) | MIC (E. coli; E. coli KU1031, mutant type SP): 0.063 µg/mL (≈ 0.174 µM) | MIC (E. coli; E. coli KU1032, mutant type SP): 0.25 µg/mL (≈ 0.692 µM) | MIC (E. coli; E. coli KU1033, mutant type SP): 0.063 µg/mL (≈ 0.174 µM) | MIC (E. coli; E. coli KU1034, mutant type GA (DNA gyrase A)): 1 µg/mL (≈ 2.77 µM) | MIC (E. coli; E. coli KU1035, mutant type GA (DNA gyrase A)): 1 µg/mL (≈ 2.77 µM) | MIC (E. coli; E. coli KU1036, mutant type GB (DNA gyrase B)): 0.125 µg/mL (≈ 0.346 µM) | MIC (E. coli; E. coli KU1038, mutant type SP): 0.125 µg/mL (≈ 0.346 µM) | MIC (E. coli; E. coli KU1039, mutant type SP): 0.25 µg/mL (≈ 0.692 µM) | MIC (E. coli; E. coli KU1040, mutant type SP): 0.031 µg/mL (≈ 0.0858 µM) | MIC (E. coli; E. coli KU1041, mutant type SP): 0.5 µg/mL (≈ 1.38 µM) | MIC (E. coli; E. coli KU1042, mutant type SP): 0.063 µg/mL (≈ 0.174 µM) | MIC (P. aeruginosa): 2 µg/mL (≈ 5.53 µM) | MIC90 (Streptococcus pneumoniae [4]; 18 h, Ciprofloxacin-resistant (21), ciprofloxacin MIC ≥8 µg/ml): 16 µg/mL (≈ 44.3 µM) | MIC (Streptococcus pneumoniae [4]; 18 h, Ciprofloxacin-resistant (21)): 2 to 32 µg/mL (≈ 5.53 to 88.6 µM) | MIC (Streptococcus pneumoniae [4]; 18 h, Ciprofloxacin-susceptible (94)): 0.25 to 2 µg/mL (≈ 0.692 to 5.53 µM) | MIC (Streptococcus pneumoniae [4]; 18 h, Erythromycin-resistant (37)): 0.5 to 16 µg/mL (≈ 1.38 to 44.3 µM) | MIC (Streptococcus pneumoniae [4]; 18 h, Minocycline-resistant (37)): 0.25 to 16 µg/mL (≈ 0.692 to 44.3 µM) | MIC (Streptococcus pneumoniae [4]; 18 h, Penicillin-resistant (19)): 0.5 to 8 µg/mL (≈ 1.38 to 22.1 µM) | MIC50 (Streptococcus pneumoniae [4]; Ciprofloxacin-resistant (21)): 16 µg/mL (≈ 44.3 µM) | MIC50 (Streptococcus pneumoniae [4]; Ciprofloxacin-susceptible (94)): 0.5 µg/mL (≈ 1.38 µM) | MIC90 (Streptococcus pneumoniae [4]; Ciprofloxacin-susceptible (94)): 1 µg/mL (≈ 2.77 µM) | MIC50 (Streptococcus pneumoniae [4]; Erythromycin-resistant (37)): 1 µg/mL (≈ 2.77 µM) | MIC90 (Streptococcus pneumoniae [4]; Erythromycin-resistant (37)): 2 µg/mL (≈ 5.53 µM) | MIC50 (Streptococcus pneumoniae [4]; Minocycline-resistant (37)): 1 µg/mL (≈ 2.77 µM) | MIC90 (Streptococcus pneumoniae [4]; Minocycline-resistant (37)): 2 µg/mL (≈ 5.53 µM) | MIC50 (Streptococcus pneumoniae [4]; Penicillin-resistant (19)): 0.5 µg/mL (≈ 1.38 µM) | MIC90 (Streptococcus pneumoniae [4]; Penicillin-resistant (19)): 1 µg/mL (≈ 2.77 µM) | MIC90 (Streptococcus pyogenes): 2 µg/mL (≈ 5.53 µM) | MIC Range (Streptococcus pyogenes): 0.5 to 2 µg/mL | MIC (Haemophilus influenzae [5]; [16]): 0.0075 to 0.5 µg/mL (≈ 0.0208 to 1.38 µM) | MIC50 (Haemophilus influenzae [5]; [16]): 0.015 µg/mL (≈ 0.0415 µM) | MIC90 (Haemophilus influenzae [5]; [16]): 0.03 µg/mL (≈ 0.083 µM) | MIC (Haemophilus influenzae [5]; β-lactamase negative (n = 80)): 0.0075 to 0.5 µg/mL (≈ 0.0208 to 1.38 µM) | MIC50 (Haemophilus influenzae [5]; β-lactamase negative (n = 80)): 0.015 µg/mL (≈ 0.0415 µM) | MIC90 (Haemophilus influenzae [5]; β-lactamase negative (n = 80)): 0.015 µg/mL (≈ 0.0415 µM) | MIC (Haemophilus influenzae [5]; β-lactamase positive (n = 20)): 0.0075 to 0.03 µg/mL (≈ 0.0208 to 0.083 µM) | MIC50 (Haemophilus influenzae [5]; β-lactamase positive (n = 20)): 0.015 µg/mL (≈ 0.0415 µM) | MIC90 (Haemophilus influenzae [5]; β-lactamase positive (n = 20)): 0.03 µg/mL (≈ 0.083 µM) | % Susceptible (Hafnia alvei): 100% | MIC50 (Hafnia alvei): 0.03 µg/mL (≈ 0.083 µM) | MIC90 (Hafnia alvei): 0.03 µg/mL (≈ 0.083 µM) | MIC Range (Hafnia alvei): ≤0.015 to 0.03 µg/mL
